Tested on: T1, DhpA (DHPS dehydrogenase)
T1 construct: full-length gene, N-terminal His-tag (pET28a), from E. coli Rosetta 2 DE3
Assay: initial rate of NADH formation at […] nm
Assay type: biochemical, Desulfovibrio sp. DF1
Conditions: 10 mM NAD+, 50 mM Tris-HCl, pH 9.5; racemic substrate; read-out: Kmapp

Km: 36 ± 4 µM
Structure (SMILES): O=S(=O)(O)CC(O)CO (racemic) [DHPS]

Reference: article PMC6278857, “Anaerobic Degradation of the Plant Sugar Sulfoquinovose Concomitant With H2S Production: Escherichia coli K-12 and Desulfovibrio sp. Strain DF1 as Co-culture Model” (Frontiers in Microbiology, 2018)
